Experimental data taken from PubChem BioAssay (NCI).
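Compound exposure: 48 hours, 5 concentrations, 96-well plates. The concentration for 50% growth inhibition is given as GI50. TGI: total growth inhibition.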

Experiments:
Assay in all cases: growth of human tumour cells (NCI), 48 h
[1] = test system: 786-0 renal
[2] = test system: A498 renal
[3] = test system: A549 NSCLC
[4] = test system: ACHN renal
[5] = test system: BT-549 breast
[6] = test system: CAKI-1 renal
[7] = test system: CCRF-CEM leukemia
[8] = test system: COLO 205 colon
[9] = test system: DU-145 prostate
[10] = test system: HCC-2998 colon
[11] = test system: HCT-116 colon
[12] = test system: HCT-15 colon
[13] = test system: HL-60(TB) leukemia
[14] = test system: HOP-62 NSCLC
[15] = test system: HOP-92 NSCLC
[16] = test system: HS 578T breast
[17] = test system: HT29 colon
[18] = test system: IGROV1 ovarian
[19] = test system: K-562 leukemia
[20] = test system: KM12 colon
[21] = test system: LOX IMVI melanoma
[22] = test system: M14 melanoma
[23] = test system: MALME-3M melanoma
[24] = test system: MCF7 breast
[25] = test system: MDA-MB-231 breast
[26] = test system: MDA-MB-435
[27] = test system: MOLT-4 leukemia
[28] = test system: NCI-H226 lung
[29] = test system: NCI-H23 lung
[30] = test system: NCI-H460 lung
[31] = test system: NCI-H522 lung
[32] = test system: NCI/ADR-RES ovarian
[33] = test system: OVCAR-3 ovarian
[34] = test system: OVCAR-4 ovarian
[35] = test system: OVCAR-5 ovarian
[36] = test system: OVCAR-8 ovarian
[37] = test system: PC-3 prostate
[38] = test system: RPMI-8226 leukemia
[39] = test system: RXF 393 renal
[40] = test system: SF-268 CNS
[41] = test system: SF-295 CNS
[42] = test system: SF-539 CNS
[43] = test system: SK-MEL-2 melanoma
[44] = test system: SK-MEL-28 melanoma
[45] = test system: SK-MEL-5 melanoma
[46] = test system: SK-OV-3 ovarian
[47] = test system: SN12C renal
[48] = test system: SNB-19 CNS
[49] = test system: SNB-75 CNS
[50] = test system: SR leukemia
[51] = test system: SW-620 colon
[52] = test system: T-47D breast
[53] = test system: TK-10 renal
[54] = test system: U251 CNS
[55] = test system: UACC-257 melanoma
[56] = test system: UACC-62 melanoma
[57] = test system: UO-31 renal

In the case of COC(=O)[C@H]1CCCN1C(=O)[C@H]1CCCN1C(=O)[C@@H](Cc1c[nH]c2ccccc12)NC(=S)Nc1cc(C(F)(F)F)cc(C(F)(F)F)c1, the GI50 [1] is reported as 1.83 µM, the TGI [1] is reported as 3.29 µM and the GI50 [2] is reported as 1.67 µM. For the same compound, the TGI [2] was 5.65 µM, the GI50 [3] was 1.83 µM and the TGI [3] was 4.52 µM. For the same compound, the GI50 [4] was 2.51 µM, the TGI [4] was 7.78 µM and the GI50 [5] was 2.47 µM. For the same compound, the TGI [5] was 5.59 µM, the GI50 [6] was 2.1 µM and the TGI [6] was 5.63 µM. The GI50 [7] was 3.14 µM, the TGI [7] was over 100 µM and the GI50 [8] was 1.83 µM. For the same compound, the TGI [8] was 3.49 µM, the GI50 [9] was 2.6 µM and the TGI [9] was 6.79 µM. The GI50 [10] was 1.82 µM, the TGI [10] was 3.3 µM and the GI50 [11] was 1.95 µM. The TGI [11] was 3.77 µM, the GI50 [12] was 1.66 µM and the TGI [12] was 3.13 µM. It also gave a GI50 [13] of 2.38 µM, a TGI [13] of 6.03 µM and a GI50 [14] of 2.01 µM. It also gave a TGI [14] of 3.83 µM, a GI50 [15] of 1.2 µM and a TGI [15] of 3.22 µM. It also gave a GI50 [16] of 2.03 µM, a TGI [16] of 5.17 µM and a GI50 [17] of 1.75 µM. For the same compound, the TGI [17] was 3.65 µM, the GI50 [18] was 1.88 µM and the TGI [18] was 4.16 µM. It also gave a GI50 [19] of 2.4 µM, a TGI [19] of 5.52 µM and a GI50 [20] of 1.88 µM. The TGI [20] was 3.92 µM, the GI50 [21] was 1.65 µM and the TGI [21] was 3.05 µM. It also gave a GI50 [22] of 2.04 µM, a TGI [22] of 4.19 µM and a GI50 [23] of 1.75 µM. The TGI [23] was 3.31 µM, the GI50 [24] was 2.16 µM and the TGI [24] was 5.35 µM. For the same compound, the GI50 [25] was 1.68 µM, the TGI [25] was 3.09 µM and the GI50 [26] was 1.8 µM. For the same compound, the TGI [26] was 3.58 µM, the GI50 [27] was 2.38 µM and the TGI [27] was 7.6 µM. For the same compound, the GI50 [28] was 3.08 µM, the TGI [28] was 11.7 µM and the GI50 [29] was 2.07 µM. For the same compound, the TGI [29] was 4.68 µM, the GI50 [30] was 1.96 µM and the TGI [30] was 4.1 µM. For the same compound, the GI50 [31] was 1.73 µM, the TGI [31] was 3.51 µM and the GI50 [32] was 3.45 µM. It also gave a TGI [32] of 12.5 µM, a GI50 [33] of 1.69 µM and a TGI [33] of 3.41 µM. It also gave a GI50 [34] of 2.86 µM, a TGI [34] of 12.9 µM and a GI50 [35] of 1.78 µM. The TGI [35] was 3.54 µM, the GI50 [36] was 1.98 µM and the TGI [36] was 3.94 µM. The GI50 [37] was 1.61 µM, the TGI [37] was 3.04 µM and the GI50 [38] was 2.34 µM. It also gave a TGI [38] of 6.38 µM, a GI50 [39] of 1.34 µM and a TGI [39] of 2.72 µM. It also gave a GI50 [40] of 2 µM, a TGI [40] of 5.4 µM and a GI50 [41] of 1.67 µM. For the same compound, the TGI [41] was 3.17 µM, the GI50 [42] was 1.92 µM and the TGI [42] was 3.61 µM. For the same compound, the GI50 [43] was 1.95 µM, the TGI [43] was 3.55 µM and the GI50 [44] was 2.07 µM. For the same compound, the TGI [44] was 4.17 µM, the GI50 [45] was 1.7 µM and the TGI [45] was 3.23 µM. It also gave a GI50 [46] of 3.01 µM, a TGI [46] of 10.1 µM and a GI50 [47] of 1.69 µM. For the same compound, the TGI [47] was 3.19 µM, the GI50 [48] was 2.14 µM and the TGI [48] was 5.72 µM. It also gave a GI50 [49] of 1.52 µM, a TGI [49] of 5.82 µM and a GI50 [50] of 2.53 µM. It also gave a TGI [50] of 5.65 µM, a GI50 [51] of 2 µM and a TGI [51] of 4.62 µM. For the same compound, the GI50 [52] was 3.27 µM, the TGI [52] was 16.4 µM and the GI50 [53] was 2.21 µM. It also gave a TGI [53] of 5.62 µM, a GI50 [54] of 1.54 µM and a TGI [54] of 2.9 µM. For the same compound, the GI50 [55] was 1.85 µM, the TGI [55] was 4.26 µM and the GI50 [56] was 1.84 µM. For the same compound, the TGI [56] was 3.79 µM, the GI50 [57] was 2.16 µM and the TGI [57] was 6.31 µM.
